Laboratory results taken from paper PMC6978363, “Chaperone mediated detection of small molecule target binding in cells” (Nature Communications, 2020).

Experiments:
Experiment in all cases: biochemical
Conditions in all cases: read-out: % Inhibition (at 10mM)
[1] = molecular target: ErbB2 (Homo sapiens, UniProt P04626)
[2] = molecular target: GRK6 (Homo sapiens, UniProt P43250)
[3] = molecular target: T1, RSK1 (Homo sapiens, UniProt Q15418)
T1 construct: gene RPS6KA1

[4] = molecular target: SGK1 (Homo sapiens, UniProt O00141)
Sequence of SGK1 (O00141 whole entry): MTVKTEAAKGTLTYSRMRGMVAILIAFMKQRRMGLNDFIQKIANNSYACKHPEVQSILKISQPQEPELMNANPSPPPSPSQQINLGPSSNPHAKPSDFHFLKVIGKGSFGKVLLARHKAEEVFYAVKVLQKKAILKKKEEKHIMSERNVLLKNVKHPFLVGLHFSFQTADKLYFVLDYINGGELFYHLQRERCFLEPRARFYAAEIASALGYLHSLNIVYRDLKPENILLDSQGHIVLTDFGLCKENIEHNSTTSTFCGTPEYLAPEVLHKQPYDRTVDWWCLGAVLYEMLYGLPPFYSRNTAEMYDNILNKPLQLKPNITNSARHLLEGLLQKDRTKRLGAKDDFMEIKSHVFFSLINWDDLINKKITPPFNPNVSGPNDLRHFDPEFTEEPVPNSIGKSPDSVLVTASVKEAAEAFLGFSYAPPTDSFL

[5] = molecular target: T2, PKC_delta (Homo sapiens, UniProt Q05655)
T2 construct: gene PRKCD

[6] = molecular target: PrKX (Homo sapiens, UniProt P51817)
[7] = molecular target: T3, PCTK3 (Homo sapiens, UniProt Q07002)
T3 construct: gene CDK18

[8] = molecular target: T4, CamK1_gamma (Homo sapiens, UniProt Q96NX5)
T4 construct: gene CAMK1G

[9] = molecular target: MAPKAPK2 (Homo sapiens, UniProt P49137)
[10] = molecular target: SGK3 (Homo sapiens, UniProt Q96BR1)
[11] = molecular target: T5, PRAK (Homo sapiens, UniProt Q8IW41)
T5 construct: gene MAPKAPK5

[12] = molecular target: T6, FAK (Homo sapiens, UniProt Q05397)
T6 construct: gene PTK2
T6 sequence (Q05397 whole entry): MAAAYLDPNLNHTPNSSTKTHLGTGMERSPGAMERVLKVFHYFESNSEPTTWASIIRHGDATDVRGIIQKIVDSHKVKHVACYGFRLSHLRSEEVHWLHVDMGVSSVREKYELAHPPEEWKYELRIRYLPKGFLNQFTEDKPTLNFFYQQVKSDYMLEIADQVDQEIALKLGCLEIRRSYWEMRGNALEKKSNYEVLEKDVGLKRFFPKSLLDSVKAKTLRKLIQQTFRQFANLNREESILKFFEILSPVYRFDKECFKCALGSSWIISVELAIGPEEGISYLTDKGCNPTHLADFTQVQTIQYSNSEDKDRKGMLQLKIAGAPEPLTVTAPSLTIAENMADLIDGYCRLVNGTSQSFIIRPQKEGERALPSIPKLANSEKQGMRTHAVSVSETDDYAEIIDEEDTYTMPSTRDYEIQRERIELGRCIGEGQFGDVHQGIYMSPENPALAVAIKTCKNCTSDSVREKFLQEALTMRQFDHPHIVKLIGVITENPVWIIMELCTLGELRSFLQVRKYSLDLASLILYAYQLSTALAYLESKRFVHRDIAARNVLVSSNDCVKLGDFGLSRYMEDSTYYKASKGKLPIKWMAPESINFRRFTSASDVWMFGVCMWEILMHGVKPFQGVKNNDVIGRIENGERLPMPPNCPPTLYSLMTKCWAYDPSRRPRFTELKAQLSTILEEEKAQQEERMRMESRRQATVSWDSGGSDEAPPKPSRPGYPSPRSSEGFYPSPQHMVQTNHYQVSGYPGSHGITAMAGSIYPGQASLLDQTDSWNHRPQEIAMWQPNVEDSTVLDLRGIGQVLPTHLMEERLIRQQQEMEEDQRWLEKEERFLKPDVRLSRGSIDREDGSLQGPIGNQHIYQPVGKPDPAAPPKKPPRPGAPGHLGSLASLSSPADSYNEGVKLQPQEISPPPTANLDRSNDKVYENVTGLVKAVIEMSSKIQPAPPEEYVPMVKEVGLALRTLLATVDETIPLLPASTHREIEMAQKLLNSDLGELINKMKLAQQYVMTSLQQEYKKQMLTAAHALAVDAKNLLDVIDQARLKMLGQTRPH

[13] = molecular target: GRK5 (Homo sapiens, UniProt P34947)
[14] = molecular target: FGFR3 (Homo sapiens, UniProt P22607)
[15] = molecular target: CDKL5 (Homo sapiens, UniProt O76039)
[16] = molecular target: T7, Tie2 (Homo sapiens, UniProt Q02763)
T7 construct: gene TEK

[17] = molecular target: MELK (Homo sapiens, UniProt Q14680)
[18] = molecular target: T8, CK2_alpha1 (Homo sapiens, UniProt P68400)
T8 construct: gene CSNK2A1

[19] = molecular target: T9, MLK1 (Homo sapiens, UniProt P80192)
T9 construct: gene MAP3K9
T9 sequence (P80192 whole entry): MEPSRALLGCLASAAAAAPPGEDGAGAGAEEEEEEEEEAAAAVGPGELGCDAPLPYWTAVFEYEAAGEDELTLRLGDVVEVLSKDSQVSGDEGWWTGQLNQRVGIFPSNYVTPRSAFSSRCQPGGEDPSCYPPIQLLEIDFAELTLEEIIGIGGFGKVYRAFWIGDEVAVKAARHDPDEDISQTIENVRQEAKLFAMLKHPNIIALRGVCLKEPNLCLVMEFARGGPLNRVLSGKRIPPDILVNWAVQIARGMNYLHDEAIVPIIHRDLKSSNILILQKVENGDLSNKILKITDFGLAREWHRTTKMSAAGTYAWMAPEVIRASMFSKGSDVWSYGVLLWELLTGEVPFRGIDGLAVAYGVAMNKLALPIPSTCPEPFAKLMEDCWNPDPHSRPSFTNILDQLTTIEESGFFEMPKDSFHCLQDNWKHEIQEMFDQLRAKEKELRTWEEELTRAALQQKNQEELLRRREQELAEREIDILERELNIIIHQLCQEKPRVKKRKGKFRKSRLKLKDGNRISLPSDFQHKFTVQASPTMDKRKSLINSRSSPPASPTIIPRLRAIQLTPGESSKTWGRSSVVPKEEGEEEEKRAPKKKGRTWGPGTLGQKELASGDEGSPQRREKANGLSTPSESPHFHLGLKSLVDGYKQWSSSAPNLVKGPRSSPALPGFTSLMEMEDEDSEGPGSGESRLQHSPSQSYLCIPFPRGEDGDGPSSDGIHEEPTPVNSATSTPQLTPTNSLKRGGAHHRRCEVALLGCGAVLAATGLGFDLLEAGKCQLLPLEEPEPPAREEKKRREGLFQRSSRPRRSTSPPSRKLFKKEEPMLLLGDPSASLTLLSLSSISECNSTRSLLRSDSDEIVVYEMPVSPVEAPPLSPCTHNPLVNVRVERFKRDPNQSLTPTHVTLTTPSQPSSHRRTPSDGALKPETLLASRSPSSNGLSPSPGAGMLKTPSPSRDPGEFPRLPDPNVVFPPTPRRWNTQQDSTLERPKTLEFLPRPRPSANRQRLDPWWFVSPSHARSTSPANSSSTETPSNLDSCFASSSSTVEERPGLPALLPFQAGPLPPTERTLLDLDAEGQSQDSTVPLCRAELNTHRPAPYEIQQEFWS

[20] = molecular target: T10, GSK3_beta (Homo sapiens, UniProt P49841)
T10 construct: gene GSK3B

[21] = molecular target: CDK2/cyclinA (Homo sapiens, UniProt P24941)
[22] = molecular target: T11, PDGFR_alpha (Homo sapiens, UniProt P16234)
T11 construct: gene PDGFRA

[23] = molecular target: T12, PKG2 (Homo sapiens, UniProt Q13237)
T12 construct: gene PRKG2

[24] = molecular target: MARK2 (Homo sapiens, UniProt Q7KZI7)
[25] = molecular target: T13, PKC_beta1 (Homo sapiens, UniProt P05771)
T13 construct: gene PRKCB; isoform beta1

[26] = molecular target: PLK3 (Homo sapiens, UniProt Q9H4B4)
[27] = molecular target: GRK4 (Homo sapiens, UniProt P32298)
[28] = molecular target: DYRK4 (Homo sapiens, UniProt Q9NR20)
Sequence of DYRK4 (Q9NR20 whole entry): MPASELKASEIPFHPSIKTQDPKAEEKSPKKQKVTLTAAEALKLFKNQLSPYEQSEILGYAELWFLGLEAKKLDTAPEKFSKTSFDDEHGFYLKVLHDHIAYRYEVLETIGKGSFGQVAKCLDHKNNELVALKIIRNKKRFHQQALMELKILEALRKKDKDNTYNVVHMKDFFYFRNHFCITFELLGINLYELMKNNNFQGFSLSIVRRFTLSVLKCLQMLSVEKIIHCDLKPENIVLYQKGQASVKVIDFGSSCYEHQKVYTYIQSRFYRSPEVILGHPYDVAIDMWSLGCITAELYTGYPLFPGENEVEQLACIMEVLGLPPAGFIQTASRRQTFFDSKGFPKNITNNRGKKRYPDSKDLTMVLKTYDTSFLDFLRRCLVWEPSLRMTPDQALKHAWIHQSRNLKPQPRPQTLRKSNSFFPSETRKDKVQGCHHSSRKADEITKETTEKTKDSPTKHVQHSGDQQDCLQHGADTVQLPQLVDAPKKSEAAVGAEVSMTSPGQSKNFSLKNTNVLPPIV

[29] = molecular target: T14, CHK1 (Homo sapiens, UniProt O14757)
T14 construct: gene CHEK1

[30] = molecular target: Bmx (Homo sapiens, UniProt P51813)
Sequence of Bmx (P51813 whole entry): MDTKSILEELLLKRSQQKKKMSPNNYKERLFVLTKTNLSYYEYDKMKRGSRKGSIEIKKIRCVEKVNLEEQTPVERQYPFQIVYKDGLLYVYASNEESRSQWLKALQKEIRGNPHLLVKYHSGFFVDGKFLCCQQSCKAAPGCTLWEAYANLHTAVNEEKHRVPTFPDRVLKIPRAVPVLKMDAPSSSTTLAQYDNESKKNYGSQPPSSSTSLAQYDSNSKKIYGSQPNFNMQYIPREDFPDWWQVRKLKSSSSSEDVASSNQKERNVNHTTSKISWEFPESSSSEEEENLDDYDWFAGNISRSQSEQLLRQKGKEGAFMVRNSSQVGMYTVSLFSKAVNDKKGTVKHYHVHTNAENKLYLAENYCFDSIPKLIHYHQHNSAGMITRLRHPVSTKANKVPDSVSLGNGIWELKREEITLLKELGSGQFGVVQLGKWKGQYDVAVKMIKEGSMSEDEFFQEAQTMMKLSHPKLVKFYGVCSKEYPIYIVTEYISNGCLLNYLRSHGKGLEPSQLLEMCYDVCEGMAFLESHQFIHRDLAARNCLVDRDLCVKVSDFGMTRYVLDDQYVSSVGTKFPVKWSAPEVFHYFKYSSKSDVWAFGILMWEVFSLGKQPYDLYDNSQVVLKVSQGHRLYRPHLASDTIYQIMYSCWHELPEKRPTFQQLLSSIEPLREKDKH

[31] = molecular target: T15, MRCK_alpha (Homo sapiens, UniProt Q5VT25)
T15 construct: gene CDC42BPA

[32] = molecular target: EphA2 (Homo sapiens, UniProt P29317)
[33] = molecular target: T16, FAK2 (Homo sapiens, UniProt Q14289)
T16 construct: gene PTK2B

[34] = molecular target: PIM3 (Homo sapiens, UniProt Q86V86)
[35] = molecular target: PRKAA2 (Homo sapiens, UniProt P54646)
[36] = molecular target: T17, Ron (Homo sapiens, UniProt Q04912)
T17 construct: gene MST1R

[37] = molecular target: T18, CaMKII_beta (Homo sapiens, UniProt Q13554)
T18 construct: gene CAMK2B

[38] = molecular target: T19, MST1 (Homo sapiens, UniProt Q13043)
T19 construct: gene STK4
T19 sequence (Q13043 whole entry): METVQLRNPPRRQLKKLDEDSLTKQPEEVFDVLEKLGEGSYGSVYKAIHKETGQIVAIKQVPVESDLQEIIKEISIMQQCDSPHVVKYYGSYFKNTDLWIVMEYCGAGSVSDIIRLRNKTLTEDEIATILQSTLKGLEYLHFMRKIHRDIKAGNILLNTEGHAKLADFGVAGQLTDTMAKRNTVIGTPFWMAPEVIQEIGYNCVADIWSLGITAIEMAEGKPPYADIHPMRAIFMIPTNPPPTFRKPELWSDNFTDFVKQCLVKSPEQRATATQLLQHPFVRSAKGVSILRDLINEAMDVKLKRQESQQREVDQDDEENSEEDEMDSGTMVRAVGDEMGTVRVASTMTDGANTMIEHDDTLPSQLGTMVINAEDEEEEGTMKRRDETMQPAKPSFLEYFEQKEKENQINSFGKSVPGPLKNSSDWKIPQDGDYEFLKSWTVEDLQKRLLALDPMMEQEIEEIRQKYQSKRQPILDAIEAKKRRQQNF

T1 sequence (Q15418 whole entry): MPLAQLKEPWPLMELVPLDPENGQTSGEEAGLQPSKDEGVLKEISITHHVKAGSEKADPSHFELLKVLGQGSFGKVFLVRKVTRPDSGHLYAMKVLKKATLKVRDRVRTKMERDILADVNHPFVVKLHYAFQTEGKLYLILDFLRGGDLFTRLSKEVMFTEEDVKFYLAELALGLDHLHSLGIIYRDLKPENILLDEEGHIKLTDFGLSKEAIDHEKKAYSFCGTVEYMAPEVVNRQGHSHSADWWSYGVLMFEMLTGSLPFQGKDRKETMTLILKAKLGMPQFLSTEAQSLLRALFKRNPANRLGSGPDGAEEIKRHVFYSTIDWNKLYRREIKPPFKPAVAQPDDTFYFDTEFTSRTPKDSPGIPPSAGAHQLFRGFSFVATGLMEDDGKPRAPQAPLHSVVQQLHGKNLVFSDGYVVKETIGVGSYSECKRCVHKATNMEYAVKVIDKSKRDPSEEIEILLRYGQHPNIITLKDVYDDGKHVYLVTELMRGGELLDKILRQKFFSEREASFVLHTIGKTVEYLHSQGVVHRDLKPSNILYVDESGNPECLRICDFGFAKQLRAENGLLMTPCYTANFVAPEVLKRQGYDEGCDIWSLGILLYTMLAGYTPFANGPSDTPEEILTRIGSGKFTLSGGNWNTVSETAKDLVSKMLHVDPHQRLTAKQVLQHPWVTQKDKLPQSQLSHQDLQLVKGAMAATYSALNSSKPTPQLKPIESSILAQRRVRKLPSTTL

## CC(C)(O)CC(=O)NCCn1ccc2ncnc(Nc3ccc(Oc4cccc(C(F)(F)F)c4)c(Cl)c3)c21 [TAK-285]
[1]
  inhibition: 99%
[2]
  inhibition: -1.5%
[3]
  inhibition: 14.5%
[4]
  inhibition: 2%
[5]
  inhibition: 15.5%
[6]
  inhibition: 6.5%
[7]
  inhibition: 6%
[8]
  inhibition: 10%
[9]
  inhibition: 7.5%
[10]
  inhibition: 2%
[11]
  inhibition: 3.5%
[12]
  inhibition: 7.5%
[13]
  inhibition: -4.5%
[14]
  inhibition: -6%
[15]
  inhibition: 8.5%
[16]
  inhibition: -6%
[17]
  inhibition: 5.5%
[18]
  inhibition: -2.5%
[19]
  inhibition: 6.5%
[20]
  inhibition: 9%
[21]
  inhibition: 4.5%
[22]
  inhibition: 1.5%
[23]
  inhibition: -11%
[24]
  inhibition: 5.5%
[25]
  inhibition: 5%
[26]
  inhibition: -8.5%
[27]
  inhibition: -11.5%
[28]
  inhibition: 1.5%
[29]
  inhibition: 4.5%
[30]
  inhibition: 13.5%
[31]
  inhibition: -3.5%
[32]
  inhibition: 7.5%
[33]
  inhibition: 4%
[34]
  inhibition: 1%
[35]
  inhibition: 10.5%
[36]
  inhibition: 28%
[37]
  inhibition: 24.5%
[38]
  inhibition: 2%
